# Experimental data from US7524852B2, “Bicyclic pyrimidine derivatives” (Kyowa Hakko Kogyo Co., Ltd., priority 2002, dated 2009).
# System: Hut78 cells
# Assay: Inhibitory activity on binding of [125I]-TARC to Hut78 cells
# Details: [125I]-TARC binding to Hut78 cells; test compound at 1 μmol/L
# Description: The RPMI-1640 medium (Sigma-Aldrich Japan) containing 20 mmol/L HEPES [4-(2-hydroxyethyl)-1-piperazinylethanesulfonic acid; HEPES, Nacalai Tesque, Inc.] and 0.1 w/v % bovine serum albumin (SEIKAGAKU CORPORATION) was adjusted to pH 7.0 with sodium hydrogen carbonate (Wako Pure Chemical Industries, Ltd.) to yield a binding/wash buffer. In a 96-well round-bottomed plate (Corning Costar Corporation) were placed 60 μL of a suspension of Hut78 cells (ATCC No. TIB-161) ([…] cells) in the binding/wash buffer, 20 μL of a solution of a test compound and 20 μL of a solution of 810 Bq of [^125I]-TARC (Amersham Biosciences K.K.) diluted with the binding/wash buffer up to the total aliquot of 100 μL, followed by reaction at room temperature for two hours. The solution of the test compound had been prepared by dissolving the test compound in dimethyl sulfoxide (Nacalai Tesque, Inc.) to a concentration of 10 mmol/L, and diluting the solution with the binding/wash buffer to a series of concentrations. The nonspecific binding was determined by a binding assay in the presence of a sufficient amount of unlabeled TARC. The total binding was defined as a binding in the case where dimethyl sulfoxide (Nacalai Tesque, Inc.) was added, instead of the test compound, in the same concentration (0.1 v/v %). […] Microscinti 20 (Packard BioScience Company) was placed in each well at 50 μL/well, and the radioactivity on the glass filter was determined using Topcount NXT™ (Packard BioScience Company). The binding inhibitory rates (%) of the test compounds were determined by calculation according to the following equation:
# [formula] Total binding: [^125I]-TARC binding radioactivity without addition of the test compound Binding upon addition of test compound: [^125I]-TARC binding radioactivity at respective concentration upon addition of test compound Nonspecific binding: [^125I]-TARC binding radioactivity upon addition of unlabeled TARC
row,SMILES,The Binding Inhibitory Rates at 1 μmol/L
1,CCNC(=O)N1CCc2nc(N3CCN(C[C@@H]4CN(C)CCO4)CC3)nc(NCc3ccc(Cl)cc3Cl)c2C1 [Compound 15-47],96
2,CCCNC(=O)N1CCc2nc(N3CCN(CC4CN(C)CCO4)CC3)nc(NCc3ccc(Cl)cc3Cl)c2C1 (stereo not drawn) [Compound 15-54],97
3,CCCNC(=O)N1CCc2nc(N3CCN(CC4CN(C)CCO4)CC3)nc(NCc3ccc(Cl)cc3Cl)c2C1 (stereo not drawn) [Compound 15-59],90
